Source: publication PMC4245125, “Pharmacological and Behavioral Characterization of D-473, an Orally Active Triple Reuptake Inhibitor Targeting Dopamine, Serotonin and Norepinephrine Transporters” (PLoS ONE, 2014)
Where “and” joins values, the source holds several entries; their conditions need not be identical. Identical values can stand only once.

How the values were obtained:
Beta3 = biological target: T1, Beta3 (Homo sapiens, UniProt P13945); assay: NIMH PDSP receptor binding, Beta3; conditions: [125I]Iodopindolol
T1 construct: NIMH PDSP
T1 sequence (P13945 whole entry): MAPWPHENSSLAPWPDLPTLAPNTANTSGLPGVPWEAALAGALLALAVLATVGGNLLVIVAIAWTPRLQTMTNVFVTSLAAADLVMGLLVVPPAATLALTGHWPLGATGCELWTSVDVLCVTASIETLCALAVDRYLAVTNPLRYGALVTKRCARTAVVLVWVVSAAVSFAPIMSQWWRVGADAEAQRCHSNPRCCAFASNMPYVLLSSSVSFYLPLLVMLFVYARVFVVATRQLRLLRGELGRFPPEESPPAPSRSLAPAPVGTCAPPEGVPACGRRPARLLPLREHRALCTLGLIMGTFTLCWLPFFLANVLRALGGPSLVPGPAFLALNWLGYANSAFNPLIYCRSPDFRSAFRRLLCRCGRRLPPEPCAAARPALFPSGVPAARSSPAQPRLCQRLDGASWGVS

Alpha2A = biological target: T2, Alpha2A (Homo sapiens, UniProt P08913); assay: NIMH PDSP receptor binding, Alpha2A; conditions: [3H]Clonidine, read-out: % Inhibition of Binding at 10 µM D-473
T2 construct: purchased NIMH PDSP

hSERT = hSERT (Homo sapiens, UniProt P31645); assay: Inhibition of [3H]5-HT uptake by cloned human SERT in HEK293 cells
Sequence of hSERT (P31645 whole entry): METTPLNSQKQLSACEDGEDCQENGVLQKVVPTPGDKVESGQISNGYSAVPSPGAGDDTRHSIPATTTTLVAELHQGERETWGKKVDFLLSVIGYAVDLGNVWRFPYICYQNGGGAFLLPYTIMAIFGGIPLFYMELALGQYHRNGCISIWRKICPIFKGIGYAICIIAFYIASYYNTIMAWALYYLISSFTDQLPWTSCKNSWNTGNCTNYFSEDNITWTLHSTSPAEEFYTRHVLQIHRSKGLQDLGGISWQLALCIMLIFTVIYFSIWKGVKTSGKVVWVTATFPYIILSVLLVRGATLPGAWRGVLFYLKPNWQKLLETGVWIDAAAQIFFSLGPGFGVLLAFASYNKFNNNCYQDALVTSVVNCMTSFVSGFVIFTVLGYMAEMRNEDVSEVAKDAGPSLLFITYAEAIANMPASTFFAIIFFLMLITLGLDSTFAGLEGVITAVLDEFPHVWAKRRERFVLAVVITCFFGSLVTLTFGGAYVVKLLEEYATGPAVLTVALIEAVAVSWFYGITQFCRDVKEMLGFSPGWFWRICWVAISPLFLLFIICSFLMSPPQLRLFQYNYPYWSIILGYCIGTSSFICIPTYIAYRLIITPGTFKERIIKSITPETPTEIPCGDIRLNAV

hNET = hNET (Homo sapiens, UniProt P23975); assay: Inhibition of [3H]DA uptake by cloned human NET in HEK293 cells
Sequence of hNET (P23975 whole entry): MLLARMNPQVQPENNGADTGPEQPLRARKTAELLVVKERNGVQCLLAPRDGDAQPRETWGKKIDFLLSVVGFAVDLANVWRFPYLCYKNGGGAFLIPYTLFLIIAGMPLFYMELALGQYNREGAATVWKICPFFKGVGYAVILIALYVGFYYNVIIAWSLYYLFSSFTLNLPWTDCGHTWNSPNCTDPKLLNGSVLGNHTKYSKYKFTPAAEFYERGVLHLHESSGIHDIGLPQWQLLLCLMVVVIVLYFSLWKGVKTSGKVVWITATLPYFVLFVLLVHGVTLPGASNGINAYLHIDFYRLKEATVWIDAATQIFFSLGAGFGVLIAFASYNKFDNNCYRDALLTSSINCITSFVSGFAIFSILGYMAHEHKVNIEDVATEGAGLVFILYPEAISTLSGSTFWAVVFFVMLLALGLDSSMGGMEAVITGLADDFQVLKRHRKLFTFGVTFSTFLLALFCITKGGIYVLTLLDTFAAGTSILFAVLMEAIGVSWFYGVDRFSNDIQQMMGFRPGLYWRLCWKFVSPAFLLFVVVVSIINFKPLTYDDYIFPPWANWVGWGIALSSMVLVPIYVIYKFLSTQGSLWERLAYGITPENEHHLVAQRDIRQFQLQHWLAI

D3 = biological target: T3, D3 (Homo sapiens, UniProt P35462); assay: NIMH PDSP receptor binding, D3; conditions: [3H]N-methylspiperone, read-out: % Inhibition of Binding at 10 µM D-473
T3 construct: purchased NIMH PDSP

Alpha1A = biological target: T4, Alpha1A (Homo sapiens, UniProt P35348); assay: NIMH PDSP receptor binding, Alpha1A; conditions: [3H]Prazosin, read-out: % Inhibition of Binding at 10 µM D-473
T4 construct: purchased NIMH PDSP

5HT5a = biological target: T5, 5HT5a (Homo sapiens, UniProt P47898); assay: NIMH PDSP receptor binding, 5HT5a; conditions: [3H]LSD, read-out: % Inhibition of Binding at 10 µM D-473
T5 construct: purchased NIMH PDSP

M2 = biological target: T6, M2 (Homo sapiens, UniProt P08172); assay: biochemical; conditions: read-out: % Inhibition of Binding at 10 µM D-473
T6 construct: purchased NIMH PDSP

5HT2b = 5HT2b (Homo sapiens, UniProt P41595); assay: NIMH PDSP receptor binding, 5HT2b; conditions: [3H]LSD
Sequence of 5HT2b (P41595 whole entry): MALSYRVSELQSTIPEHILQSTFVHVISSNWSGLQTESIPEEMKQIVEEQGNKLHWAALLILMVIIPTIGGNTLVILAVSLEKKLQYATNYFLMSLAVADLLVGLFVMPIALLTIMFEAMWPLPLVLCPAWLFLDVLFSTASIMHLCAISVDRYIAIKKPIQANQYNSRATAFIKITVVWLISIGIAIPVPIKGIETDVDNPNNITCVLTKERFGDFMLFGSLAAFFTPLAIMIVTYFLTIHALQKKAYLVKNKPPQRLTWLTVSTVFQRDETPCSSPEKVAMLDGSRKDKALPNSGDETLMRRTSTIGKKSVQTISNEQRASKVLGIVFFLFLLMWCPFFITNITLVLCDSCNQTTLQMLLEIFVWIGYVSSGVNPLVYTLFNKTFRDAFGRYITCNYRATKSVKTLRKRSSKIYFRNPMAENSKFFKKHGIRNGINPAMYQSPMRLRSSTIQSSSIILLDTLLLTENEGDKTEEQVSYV

µ-Opioid = biological target: T7, µ-Opioid (Homo sapiens, UniProt P35372); assay: NIMH PDSP receptor binding, µ-Opioid; conditions: [3H]Diprenorphine, read-out: % Inhibition of Binding at 10 µM D-473
T7 construct: purchased NIMH PDSP

PBR = assay: NIMH PDSP receptor binding, PBR
Alpha2C = Alpha2C (Homo sapiens, UniProt P18825); assay: NIMH PDSP receptor binding, Alpha2C; conditions: [3H]Clonidine
Sequence of Alpha2C (P18825 whole entry): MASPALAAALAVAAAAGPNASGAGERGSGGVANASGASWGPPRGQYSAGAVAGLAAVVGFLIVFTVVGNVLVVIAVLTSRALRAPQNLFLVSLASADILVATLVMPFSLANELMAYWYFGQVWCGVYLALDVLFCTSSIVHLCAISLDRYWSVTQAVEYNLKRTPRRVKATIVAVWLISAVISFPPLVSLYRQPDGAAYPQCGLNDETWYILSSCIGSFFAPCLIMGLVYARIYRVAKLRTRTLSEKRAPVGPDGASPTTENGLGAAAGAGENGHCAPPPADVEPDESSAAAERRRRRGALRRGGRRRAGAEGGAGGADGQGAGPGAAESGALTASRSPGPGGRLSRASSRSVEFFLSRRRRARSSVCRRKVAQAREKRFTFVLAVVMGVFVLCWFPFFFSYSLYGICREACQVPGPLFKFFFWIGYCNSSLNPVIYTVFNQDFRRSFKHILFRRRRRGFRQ

κ-opioid = biological target: T8, κ-opioid (Homo sapiens, UniProt P41145); assay: NIMH PDSP receptor binding, κ-opioid; conditions: [3H]Bremazocine, read-out: % Inhibition of Binding at 10 µM D-473
T8 construct: purchased NIMH PDSP

5HT2c = biological target: T9, 5HT2c (Homo sapiens, UniProt P28335); assay: NIMH PDSP receptor binding, 5HT2c; conditions: [3H]Mesulergine, read-out: % Inhibition of Binding at 10 µM D-473
T9 construct: purchased NIMH PDSP

M5 = biological target: T10, M5 (Homo sapiens, UniProt P08912); assay: biochemical; conditions: read-out: % Inhibition of Binding at 10 µM D-473
T10 construct: purchased NIMH PDSP

D1 = D1 (Homo sapiens, UniProt P21728); assay: NIMH PDSP receptor binding, D1
Sequence of D1 (P21728 whole entry): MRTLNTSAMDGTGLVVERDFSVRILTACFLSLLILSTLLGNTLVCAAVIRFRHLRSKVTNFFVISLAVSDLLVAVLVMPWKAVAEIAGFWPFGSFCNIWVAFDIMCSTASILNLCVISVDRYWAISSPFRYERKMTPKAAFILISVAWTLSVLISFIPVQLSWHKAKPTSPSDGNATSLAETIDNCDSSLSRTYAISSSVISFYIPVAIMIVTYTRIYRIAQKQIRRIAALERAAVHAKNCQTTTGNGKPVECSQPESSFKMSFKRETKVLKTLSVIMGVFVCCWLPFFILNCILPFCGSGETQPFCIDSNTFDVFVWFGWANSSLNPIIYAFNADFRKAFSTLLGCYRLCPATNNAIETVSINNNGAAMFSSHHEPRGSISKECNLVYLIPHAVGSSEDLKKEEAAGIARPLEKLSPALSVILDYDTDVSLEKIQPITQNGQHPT

5HT3 = biological target: T11, 5HT3 (Homo sapiens, UniProt P46098); assay: NIMH PDSP receptor binding, 5HT3; conditions: [3H] LY 278,584, read-out: % Inhibition of Binding at 10 µM D-473
T11 construct: purchased NIMH PDSP

Beta2 = biological target: T12, Beta2 (Homo sapiens, UniProt P07550); assay: NIMH PDSP receptor binding, Beta2; conditions: [125I]Iodopindolol, read-out: % Inhibition of Binding at 10 µM D-473
T12 construct: purchased NIMH PDSP
T12 sequence (P07550 whole entry): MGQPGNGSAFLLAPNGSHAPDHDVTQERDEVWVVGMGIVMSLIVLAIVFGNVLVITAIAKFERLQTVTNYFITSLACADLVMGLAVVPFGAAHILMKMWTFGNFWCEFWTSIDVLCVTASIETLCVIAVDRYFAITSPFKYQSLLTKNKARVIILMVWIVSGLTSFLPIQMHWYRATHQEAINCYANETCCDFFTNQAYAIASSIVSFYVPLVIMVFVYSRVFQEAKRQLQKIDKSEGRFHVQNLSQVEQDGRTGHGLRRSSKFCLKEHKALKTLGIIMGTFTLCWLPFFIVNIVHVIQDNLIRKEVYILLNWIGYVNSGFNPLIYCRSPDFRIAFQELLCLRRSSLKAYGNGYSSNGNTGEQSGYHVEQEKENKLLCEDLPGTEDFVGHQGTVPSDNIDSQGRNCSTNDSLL

hDAT = hDAT (Homo sapiens, UniProt Q01959); assay: Inhibition of [3H]DA uptake by cloned human DAT in HEK293 cells; conditions: nM, HEK293 cells expressing hDAT, average±S.E.M., 3 to 10 determinations
Sequence of hDAT (Q01959 whole entry): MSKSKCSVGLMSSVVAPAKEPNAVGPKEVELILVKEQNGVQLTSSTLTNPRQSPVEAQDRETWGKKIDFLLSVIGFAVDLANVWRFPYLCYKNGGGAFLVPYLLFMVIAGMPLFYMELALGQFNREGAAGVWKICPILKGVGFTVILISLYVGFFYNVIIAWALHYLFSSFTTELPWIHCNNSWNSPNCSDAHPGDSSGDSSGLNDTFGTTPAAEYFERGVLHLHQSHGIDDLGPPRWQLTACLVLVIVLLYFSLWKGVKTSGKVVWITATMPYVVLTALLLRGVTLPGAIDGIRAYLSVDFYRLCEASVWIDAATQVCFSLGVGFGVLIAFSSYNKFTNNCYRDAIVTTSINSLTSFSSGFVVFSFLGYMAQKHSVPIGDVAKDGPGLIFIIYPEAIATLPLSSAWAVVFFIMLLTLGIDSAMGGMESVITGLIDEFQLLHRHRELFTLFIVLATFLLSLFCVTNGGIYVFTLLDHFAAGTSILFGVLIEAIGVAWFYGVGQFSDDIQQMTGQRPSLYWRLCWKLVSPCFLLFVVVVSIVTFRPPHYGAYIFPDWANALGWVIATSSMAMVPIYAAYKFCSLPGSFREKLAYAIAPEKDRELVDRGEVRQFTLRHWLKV

H2 = biological target: T13, H2 (Homo sapiens, UniProt P25021); assay: NIMH PDSP receptor binding, H2; conditions: [3H]Tiotodine
T13 construct: NIMH PDSP
T13 sequence (P25021 whole entry): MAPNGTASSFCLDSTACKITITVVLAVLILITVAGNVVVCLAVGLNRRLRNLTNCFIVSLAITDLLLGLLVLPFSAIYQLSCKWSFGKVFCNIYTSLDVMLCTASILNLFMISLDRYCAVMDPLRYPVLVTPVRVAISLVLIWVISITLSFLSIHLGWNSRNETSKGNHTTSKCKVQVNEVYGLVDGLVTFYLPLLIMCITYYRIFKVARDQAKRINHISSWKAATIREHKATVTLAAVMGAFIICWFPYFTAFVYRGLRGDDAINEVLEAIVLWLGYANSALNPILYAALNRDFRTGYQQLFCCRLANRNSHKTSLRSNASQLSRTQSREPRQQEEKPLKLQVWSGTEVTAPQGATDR

GABA A = assay: NIMH PDSP receptor binding, GABA A; conditions: [3H]Muscimol
5HT1d = biological target: T14, 5HT1d (Homo sapiens, UniProt P28221); assay: NIMH PDSP receptor binding, 5HT1d; conditions: [3H]GR-125743, read-out: % Inhibition of Binding at 10 µM D-473
T14 construct: purchased NIMH PDSP

D5 = D5 (Homo sapiens, UniProt P21918); assay: NIMH PDSP receptor binding, D5
Sequence of D5 (P21918 whole entry): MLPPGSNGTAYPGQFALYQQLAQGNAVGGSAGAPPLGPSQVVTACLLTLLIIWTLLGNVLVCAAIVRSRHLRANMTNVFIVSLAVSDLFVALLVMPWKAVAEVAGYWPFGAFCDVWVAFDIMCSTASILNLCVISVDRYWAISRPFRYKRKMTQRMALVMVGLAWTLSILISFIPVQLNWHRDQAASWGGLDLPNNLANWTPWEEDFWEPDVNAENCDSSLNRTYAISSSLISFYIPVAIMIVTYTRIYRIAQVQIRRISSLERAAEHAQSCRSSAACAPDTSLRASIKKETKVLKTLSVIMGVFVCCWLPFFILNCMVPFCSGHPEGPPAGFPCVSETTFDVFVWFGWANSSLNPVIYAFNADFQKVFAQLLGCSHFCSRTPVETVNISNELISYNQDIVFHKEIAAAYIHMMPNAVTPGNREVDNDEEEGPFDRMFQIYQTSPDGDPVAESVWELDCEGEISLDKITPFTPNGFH

[1] = test system: locomotor activity (horizontal activity); assay: Locomotor activity in rats; format: in vivo; conditions: rat; 25 mg/kg oral; 2 h post administration; vs vehicle
Procedure: Sprague Dawley Rats were tested at 25 mg/kg oral dose of D-473 to monitor changes in any locomotor activity in acrylic Auto-Track/Opto-Varimex-4 System (Columbus Instrument; Columbus, Ohio). The purpose was to evaluate locomotor activity of the same doses of drug that were used in the forced swim test. Rats were acclimated in the test chambers for 1 h prior to oral administration of D-473. Locomotor activity of the drug was measured for a total of two hour post administration of the drug which corresponded to the time of measurement in the forced swimming experiment. GBR 12909 was studied as a control drug known to stimulate and was administered i.p. as in published studies; vehicle was orally administered.

5HT7 = biological target: T15, 5HT7 (Homo sapiens, UniProt P34969); assay: NIMH PDSP receptor binding, 5HT7; conditions: [3H]LSD, read-out: % Inhibition of Binding at 10 µM D-473
T15 construct: purchased NIMH PDSP

[2] = 10 µM, read-out: % Inhibition of Binding at 10 µM D-473
[3] = secondary assay, read-out: Ki for D-473
[4] = [3H]SCH 23390, 10 µM, read-out: % Inhibition of Binding at 10 µM D-473
[5] = [3H]SCH 23390, secondary assay, read-out: Ki for D-473

`COc1ccc(CN[C@@H]2CO[C@H](C(c3ccc(F)cc3)c3ccc(F)cc3)C[C@H]2O)cc1` [Compound D-473, (2S,4R,5R)-2-(bis(4-fluorophenyl)methyl)-5-((4-methoxybenzyl)amino)tetrahydro-2H-pyran-4-ol] was tested, and the inhibition at 10 µM (Beta3; [2]) was 61.2%, the Ki (Beta3; [3]) was over 10000 nM and the inhibition at 10 µM (Alpha2A) was 14.5%. For the same molecule, the Ki (hSERT) was 9.18 ± 1.69 nM, the “Potency at SERT relative to Fluoxetine” value (hSERT; hSERT uptake inhibition) was “almost one and a half fold greater” and the Ki (hNET; NET uptake, Ki, nM [3H]DA, HEK293 cells expressing hNET, average±S.E.M., 3 to 10 determinations) was 39 nM and 39.7 nM. For the same molecule, the “Activity at NET relative to DAT” value (hNET; hNET vs hDAT uptake inhibition) was “roughly two fold more potent”, the inhibition at 10 µM (D3) was 30.8% and the inhibition at 10 µM (Alpha1A) was 23.6%. The inhibition at 10 µM (5HT5a) was 19.5%, the inhibition at 10 µM (M2) was -9.5% and the inhibition at 10 µM (5HT2b; [2]) was 70.8%. For the same molecule, the Ki (5HT2b; [3]) was 597 nM, the inhibition at 10 µM (µ-Opioid) was 20.5% and the “% Inhibition of Binding at 10 µM D-473” value (PBR) was 8.4%. The inhibition at 10 µM (Alpha2C; [2]) was 61%, the Ki (Alpha2C; [3]) was over 10000 nM and the inhibition at 10 µM (κ-opioid) was 48.5%. It also gave an inhibition at 10 µM (5HT2c) of 45.4%, an inhibition at 10 µM (M5) of 3.2% and an inhibition at 10 µM (D1; [4]) of 62.2%. For the same molecule, the Ki (D1; [5]) was 630 nM, the inhibition at 10 µM (5HT3) was 3.5% and the inhibition at 10 µM (Beta2) was -4.4%. For the same molecule, the Ki (hDAT) was 70 nM and 70.4 nM, the inhibition at 10 µM (H2; [2]) was 70.1% and the Ki (H2; [3]) was 141 nM. For the same molecule, the “% Inhibition of Binding at 10 µM D-473” value (GABA A) was 5.1%, the inhibition at 10 µM (5HT1d) was 39% and the inhibition at 10 µM (D5; [4]) was 74.7%. For the same molecule, the Ki (D5; [5]) was 1570 nM, the “Locomotor activity (horizontal activity)” value [1] was “statistically indistinguishable from vehicle” and the inhibition at 10 µM (5HT7) was 41.4%.
